Measured values reported in US20250282776A1, “Bicyclic TLR7 Agonists and Uses Thereof” (Bristol-Myers Squibb Company, priority 2024, published 2025).

How the values were obtained:
[1] = biological target: T1, human TLR8 (hTLR8) (Homo sapiens, UniProt Q9NR97); test: Human TLR8 agonist activity assay (measured in a similar manner); assay type: cell-based; conditions: HEK-Blue TLR cells, SEAP reporter, measured in a similar manner to TLR7; some values average of multiple measurements
T1 construct: expressed in transfected cells
T1 sequence (Q9NR97 27-1041): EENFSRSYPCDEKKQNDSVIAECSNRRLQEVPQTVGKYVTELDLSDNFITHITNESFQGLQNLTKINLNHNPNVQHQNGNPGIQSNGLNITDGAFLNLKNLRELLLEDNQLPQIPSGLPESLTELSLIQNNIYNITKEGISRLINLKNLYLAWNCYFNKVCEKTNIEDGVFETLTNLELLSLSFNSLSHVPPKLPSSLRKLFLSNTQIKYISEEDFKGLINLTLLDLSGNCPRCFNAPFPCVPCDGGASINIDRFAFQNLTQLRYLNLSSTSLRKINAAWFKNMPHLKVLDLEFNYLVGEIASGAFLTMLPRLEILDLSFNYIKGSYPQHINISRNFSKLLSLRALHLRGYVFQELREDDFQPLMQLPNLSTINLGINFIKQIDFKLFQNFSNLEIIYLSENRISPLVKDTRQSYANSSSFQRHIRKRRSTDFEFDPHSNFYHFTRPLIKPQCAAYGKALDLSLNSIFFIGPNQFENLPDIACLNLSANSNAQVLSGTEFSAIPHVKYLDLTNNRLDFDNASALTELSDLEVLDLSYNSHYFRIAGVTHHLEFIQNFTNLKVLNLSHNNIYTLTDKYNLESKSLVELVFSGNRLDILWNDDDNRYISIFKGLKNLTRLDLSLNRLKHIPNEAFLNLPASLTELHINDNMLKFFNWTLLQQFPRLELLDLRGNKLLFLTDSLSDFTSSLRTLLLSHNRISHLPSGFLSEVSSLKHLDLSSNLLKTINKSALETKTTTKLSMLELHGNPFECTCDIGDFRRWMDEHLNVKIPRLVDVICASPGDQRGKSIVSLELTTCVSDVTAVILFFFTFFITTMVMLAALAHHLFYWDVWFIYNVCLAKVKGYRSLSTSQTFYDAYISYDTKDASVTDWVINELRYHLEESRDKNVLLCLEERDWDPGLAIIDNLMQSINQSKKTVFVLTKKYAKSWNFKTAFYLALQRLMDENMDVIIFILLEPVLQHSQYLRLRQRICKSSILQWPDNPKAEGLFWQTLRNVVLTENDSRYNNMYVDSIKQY
Outline: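 Compounds were added to HEK-Blue TLR8 reporter cells, pre-incubated 16-18 h, then treated 18 h at 37° C, 5% CO2. SEAP output was measured with Quanti-Blue (30 min) at OD 620 nm. Some values are averages of multiple measurements.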

[2] = biological target: T2, human TLR7 (hTLR7) (Homo sapiens, UniProt Q9NYK1); test: Human TLR7 agonist activity assay (HEK-Blue TLR7 SEAP reporter); assay type: cell-based; conditions: HEK-Blue TLR7 cells, 18 h incubation, Quanti-Blue, OD 620 nm, some values average of multiple measurements
T2 construct: host or cells: HEK-Blue TLR7 cells (engineered human embryonic kidney cells)
T2 sequence (Q9NYK1 27-1049): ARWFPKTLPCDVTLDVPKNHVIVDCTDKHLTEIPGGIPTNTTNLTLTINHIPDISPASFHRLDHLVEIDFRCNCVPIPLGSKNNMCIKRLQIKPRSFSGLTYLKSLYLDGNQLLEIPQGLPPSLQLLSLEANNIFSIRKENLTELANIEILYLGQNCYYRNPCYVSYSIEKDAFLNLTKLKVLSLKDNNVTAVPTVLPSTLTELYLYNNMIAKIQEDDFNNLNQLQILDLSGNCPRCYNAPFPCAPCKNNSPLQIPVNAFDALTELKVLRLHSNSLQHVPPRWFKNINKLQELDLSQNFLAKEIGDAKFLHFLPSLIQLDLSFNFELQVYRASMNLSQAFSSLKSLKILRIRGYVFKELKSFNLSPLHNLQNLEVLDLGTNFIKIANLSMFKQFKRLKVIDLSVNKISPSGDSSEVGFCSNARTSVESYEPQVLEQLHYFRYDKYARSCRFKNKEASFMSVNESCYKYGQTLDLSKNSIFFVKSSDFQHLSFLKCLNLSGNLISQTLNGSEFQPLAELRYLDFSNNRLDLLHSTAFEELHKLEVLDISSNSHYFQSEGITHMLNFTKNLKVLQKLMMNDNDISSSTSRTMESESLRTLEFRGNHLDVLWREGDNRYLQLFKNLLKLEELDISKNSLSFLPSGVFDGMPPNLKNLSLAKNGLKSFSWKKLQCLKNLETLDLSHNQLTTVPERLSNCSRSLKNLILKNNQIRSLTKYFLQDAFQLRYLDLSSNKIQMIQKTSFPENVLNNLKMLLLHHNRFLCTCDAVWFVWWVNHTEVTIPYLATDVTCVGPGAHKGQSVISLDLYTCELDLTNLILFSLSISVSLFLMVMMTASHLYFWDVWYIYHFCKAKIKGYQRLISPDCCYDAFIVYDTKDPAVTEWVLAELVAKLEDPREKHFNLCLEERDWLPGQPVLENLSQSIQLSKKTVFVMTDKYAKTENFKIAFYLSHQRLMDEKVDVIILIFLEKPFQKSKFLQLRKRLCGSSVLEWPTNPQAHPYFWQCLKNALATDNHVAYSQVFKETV
Outline: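 HEK-Blue TLR7 cells seeded 16-18 h, then exposed to compound for 18 h at 37 °C, 5% CO2. Secreted SEAP read with Quanti-Blue at OD 620 nm after 30 min. EC50 taken as concentration giving half-maximal response between baseline and maximum; some values averaged over repeats.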

Compound | EC50 [1] [nM] | EC50 [2] [nM]
CCCCN(CCO)c1nc(N)nc2cn(Cc3c(F)cc(C4CCN(C(C)C)CC4)cc3C#N)nc12 [Compound 151] | 1830 | 612
CCCCN(CCO)c1nc(N)nc2cn(Cc3ccc(CN[C@H]4CCCN(C)C4)c4cccnc34)nc12 [Compound 168] | 1100 | 587
CCCCN(CCO)c1nc(N)nc2cn(Cc3ccc(CNC4CCOCC4)cc3C(F)F)nc12 [Compound 100] | 1420 | 1760
CCCCN(CCO)c1nc(N)nc2cn(Cc3ccc(CNC4CCCC4)c4cccnc34)nc12 [Compound 61] | 952 | 1500
CCCCN(c1nc(N)nc2cn(Cc3ccc(CN[C@@H]4CCOC4)cc3OC)nc12)C(C)CO (stereo partly shown) [Compound 68] | 1320 | 349
CCCCN(CCO)c1nc(N)nc2cn(Cc3ccc(CN[C@@H]4CCOC4)cc3)nc12 [Compound 157] | 460 | 1160
CCCCN(CCO)c1nc(N)nc2cn(Cc3ccc(CN4CC5(CC(O)C5)C4)cc3OC)nc12 [Compound 27] | 1950 | 1970
CCCCN(CCO)c1nc(N)nc2cn(Cc3c(F)cc(C4=CC[C@@H](NC5CC6(COC6)C5)CC4)cc3OC)nc12 [Compound 194] | 1130 | 422
CCCCN(CCO)c1nc(N)nc2cn(Cc3c(F)cc(CNCC(C)(C)O)cc3OC)nc12 [Compound 81] | 1430 | 1000
CCCCN(CCO)c1nc(N)nc2cn(Cc3c(F)cc(C4CCN(CC(N)=O)CC4)cc3OC)nc12 [Compound 41] | 858 | 251
CCCCN(CCO)c1nc(N)nc2cn(Cc3ccc(CNC4CCOC(C)C4)cc3OC)nc12 (single isomer, unassigned) [Compound 121] | 564 | 1360
CCCCN(CCO)c1nc(N)nc2cn(Cc3c(F)cc(CN[C@H]4CC[C@H](O)CC4)cc3OC)nc12 [Compound 93] | 1910 | 2580
CCCCN(CCO)c1nc(N)nc2cn(Cc3c(F)cc(CN[C@H]4C[C@H](OC)C4)cc3F)nc12 [Compound 119] | 1960 | 136
CCCCN(CCO)c1nc(N)nc2cn(Cc3c(OC)cc(CNC4CCOCC4)cc3OC)nc12 [Compound 144] | 2060 | 1870
CCCCN(CCO)c1nc(N)nc2cn(Cc3ccc(CNC4(C)COC4)cc3OC)nc12 [Compound 21] | 834 | 587
CCCCN(CCO)c1nc(N)nc2cn(Cc3ccc(CN[C@@H]4CCCN(C(C)=O)C4)c4cccnc34)nc12 [Compound 186] | 3490 | 1690
CCCCN(CCO)c1nc(N)nc2cn(Cc3ncc(CNC4CCC4)cc3OC)nc12 [Compound 182] | 1770 | 865
CCCCN(CCO)c1nc(N)nc2cn(Cc3ccc(CNCC(C)(C)O)cc3OC)nc12 [Compound 9] | 1250 | 1620
CCCCN(CCO)c1nc(N)nc2cn(Cc3c(F)cc(CNCCO)cc3OC)nc12 [Compound 72] | 835 | 738

Compound | EC50 [1] [nM] | EC50 [2] [nM]
CCCCN(CCO)c1nc(N)nc2cn(Cc3ccc(CN[C@H]4C[C@H](OC)C4)c4c3OCCC4)nc12 [Compound 138] | 608 | 1410
COc1cc(CN[C@H]2C[C@H](OC)C2)ccc1Cn1cc2nc(N)nc(N(CCO)CCCCF)c2n1 [Compound 170] | 2500 | 1800
CCCCN(CCO)c1nc(N)nc2cn(Cc3c(F)cc(C4CCN(C5CC6(CCC6)C5)CC4)cc3OC)nc12 [Compound 39] | 437 | 396
CCCCN(CCO)c1nc(N)nc2cn(Cc3c(F)cc(C4CCN(C5CCOCC5)CC4)cc3C#N)nc12 [Compound 150] | 2100 | 1130
CCCCN(CCO)c1nc(N)nc2cn(Cc3c(F)cc(CNCC4(CO)CC4)cc3OC)nc12 [Compound 92] | 2110 | 1330
CCCCCNCc1ccc(Cn2cc3nc(N)nc(N(CCO)CCCC)c3n2)c2ncccc12 [Compound 57] | 1390 | 2000
CCCCN(CCO)c1nc(N)nc2cn(Cc3ccc(CNC4CCCOC4)cc3OC)nc12 (stereo not shown) [Compound 105] | 2780 | 1820
CCCCN(CCO)c1nc(N)nc2cn(Cc3c(F)cc(CN[C@@H]4CCOC4)cc3F)nc12 [Compound 116] | 1020 | 31
CCCCN(c1nc(N)nc2cn(Cc3c(F)cc(C4CCN(C5CC6(COC6)C5)CC4)cc3OC)nc12)C(C)CO (stereo not shown) [Compound 164] | 614 | 196
CCCCN(CCO)c1nc(N)nc2cn(Cc3c(F)cc(CNC4(CO)CC4)cc3OC)nc12 [Compound 91] | 2080 | 1220
CCCCN(CCO)c1nc(N)nc2cn(Cc3ccc(CN4CCOCC4)cc3OC)nc12 [Compound 18] | 447 | 380
CCCCN(CCO)c1nc(N)nc2cn(Cc3ccc(CNC4CCOC(C)C4)cc3OC)nc12 (stereo not shown) [Compound 125] | 2030 | 2250
CCCCN(c1nc(N)nc2cn(Cc3ccc(CN4CCCCC4)cc3OC)nc12)C(C)CO (single isomer, unassigned) [Compound 49-2, 2-((5-amino-2-(2-methoxy-4-(piperidin-1-ylmethyl)benzyl)-2H-pyrazolo[4,3-d]pyrimidin-7-yl)(butyl)amino)propan-1-ol] | 682 | 385
CCCCN(CCO)c1nc(N)nc2cn(Cc3ccc(CN[C@@H]4CCOC4)cc3OC)nc12 [Compound 53] | 486 | 731
CCCCN(CCO)c1nc(N)nc2cn(Cc3ccc(CN[C@H]4CCOC4)cc3OC)nc12 [Compound 52] | 1070 | 1190
CCCCN(CCO)c1nc(N)nc2cn(Cc3ccc(CNC4CCC4)n4ncnc34)nc12 [Compound 175, 2-((5-Amino-2-((5-((cyclobutylamino)methyl)-[1,2,4]triazolo[1,5-a]pyridin-8-yl)methyl)-2H-pyrazolo[4,3-d]pyrimidin-7-yl)(butyl)amino)ethan-1-ol] | 328 | 307
CCCCN(CCO)c1nc(N)nc2cn(Cc3ccc(CN[C@H]4C[C@H](OC)C4)n4ccnc34)nc12 [Compound 188] | 1400 | 781
CCCCN(CCO)c1nc(N)nc2cn(Cc3ccc(CNC4COC4)cc3OC)nc12 [Compound 26] | 1140 | 828
CCCCN(CCO)c1nc(N)nc2cn(Cc3c(F)cc(CN[C@H]4C[C@@H](OC)C4)cc3F)nc12 [Compound 118] | 2500 | 1580
